# According to EPA's ToxValDB 9.5:
# Where “and” joins values, the source holds several entries; their conditions need not be identical. Equal values may be shown once.
# Tests used:
# Cavia porcellus = details: acute; for LD50: Guinea Pig
# Oryctolagus sp. [1] = details: dermal, occlusive, New Zealand
# Rattus norvegicus [2] = details: for LC50 / LD50: acute
# Rattus norvegicus [3] = details: injection; for LEL: uterotrophic, duration: 3 days, Active
# Homo sapiens [4] = details: clinical; oral; M; Restoration normal sexual desire, erection, ejaculation, and general well-being
# Coturnix japonica = details: repeat dose other; oral
# Rattus norvegicus [5] = details: repeat dose other; oral
# Oryctolagus sp. [6] = details: subchronic; inhalation; M/F; sedation
# Rattus norvegicus [7] = details: subchronic, M/F
# Rattus norvegicus [8] = details: subchronic; duration: 35 days; oral; gavage; Kidney: Histopathology + Liver: Histopathology
# Homo sapiens [9] = details: clinical; duration: 2 weeks; oral; Endocrine
# Homo sapiens [10] = details: clinical, duration: 14 days, oral, M, hematological
# Canidae [11] = details: oral, diet, M/F, Dog Other
# Homo sapiens [12] = details: clinical, oral
# Canidae [13] = details: subchronic, duration: 90 days, oral, M/F, Beagle, neurological
# Rattus norvegicus [14] = details: developmental; oral; gavage; Embryotoxic effects
# Homo sapiens [15] = details: clinical; oral; Blood: Increased prothrombin time
# Mus musculus [16] = details: acute; oral
# Mus musculus [17] = details: subchronic, oral, M/F
# Mus musculus [18] = details: subchronic, oral, gavage, M/F
# Mus musculus [19] = details: subchronic; duration: 13 weeks; oral; gavage; M/F; CD1; hepatic
# Neovison sp. = details: repeat dose other; oral; Mink
# Rattus norvegicus [20] = details: short-term; duration: 28 days; oral; gavage; unknown; Wistar; renal
# Canidae [21] = details: chronic; duration: 2 years; oral; diet; Dog Other; Small intestine: Increased weight + Stomach: Increased weight
# Oryctolagus sp. [22] = test: LD0; higher = less toxic; details: acute; dermal; New Zealand
# [23] = reproduction developmental, duration: 19 days, oral, gavage, Sprague-Dawley
# [24] = subchronic, duration: 90 days, inhibition of brain cholinesterase
# [25] = M, plasma cholinesterase inhibition
# [26] = kidney effects (renal tubular pathology, reduced kidney weight)
# [27] = chronic, duration: 2 years, increased absolute and relative weight of stomach and small intestine
# [28] = subchronic, duration: 90 days, inhalation, Sprague-Dawley
compound,measurement,setting,value
"CC(C)(N=C=O)c1cccc(C(C)(C)N=C=O)c1 [1,3-Bis(2-isocyanato-2-propyl)benzene]",LC50,Cavia porcellus; Inhalation,0.24 mg/L
same,LD50,Oryctolagus sp. [1]; acute,> 2000 mg/kg
same,LC50,"Rattus norvegicus [2]; inhalation, Sprague-Dawley",0.027 mg/L
same,LD50,"Rattus norvegicus [2]; oral, gavage, Sprague-Dawley",> 5000 mg/kg
same,LOAEL,Rattus norvegicus [2]; [23],250 mg/kg-day
same,NOAEL,Rattus norvegicus [2]; [23],150 mg/kg-day
same,NOAEL,"Rattus norvegicus [2]; reproduction developmental, duration: 19 days, oral, gavage, Sprague-Dawley, generation: F0",150 mg/kg-day
same,NOAEL,"Rattus norvegicus [2]; reproduction developmental, duration: 19 days, oral, gavage, Sprague-Dawley, generation: F1",250 mg/kg-day
same,NOAEL,"Rattus norvegicus [2]; reproduction developmental, oral, gavage, F, Sprague-Dawley",150 mg/kg-day
same,NOAEL,"Rattus norvegicus [2]; reproduction developmental, oral, gavage, Sprague-Dawley, generation: F1",250 mg/kg-day
same,NOAEL,"Rattus norvegicus [2]; short-term, duration: 4 weeks, Inhalation, Sprague-Dawley",1.5 mg/m3
C[C@]12CC[C@H]3[C@@H](CCC4=CC(=O)CC[C@@]43C)[C@@H]1CC[C@@H]2O [Testosterone],NOEL,"Rattus norvegicus [3]; Hershberger, duration: 7 days, subcutaneous, Sprague-Dawley, active + Androgenic + androgenic",0.1 mg/kg-day
same,LEL,Rattus norvegicus [3]; subcutaneous,0.2 mg/day
same,NOEL,Homo sapiens [4],1.7 mg/kg-day
[Mn+2].[Mn+3].[Mn+3].[O-2].[O-2].[O-2].[O-2] [Manganese oxide (Mn3O4)],NOAEL,Coturnix japonica,997 mg/kg-day
same,LOAEL,Rattus norvegicus [5],284 mg/kg-day
same,NOAEL,Rattus norvegicus [5],88 mg/kg-day
COCC(C)O (stereo not drawn) [1-Methoxy-2-propanol],LOAEL,Oryctolagus sp. [6],11100 mg/m3
same,NOAEL,Oryctolagus sp. [6],3680 mg/m3
same,LOAEL,"Rattus norvegicus [7]; inhalation, sedation",11100 mg/m3
same,NOAEL,"Rattus norvegicus [7]; inhalation, sedation",3680 mg/m3
same,NOEL,Rattus norvegicus [8],947 mg/kg-day
[Co] [Cobalt],LOAEL,Homo sapiens [9],1 mg/kg-day
same,LOAEL,Homo sapiens [10],1 mg/kg-day
same,NOAEL,Homo sapiens [10]; capsule,0.8 mg/kg-day
CCOP(=S)(OCC)SCSP(=S)(OCC)OCC [Ethion],LEL,Canidae [11]; [24],0.71 mg/kg-day
same,NOEL,Canidae [11]; [24],0.06 mg/kg-day
same,LEL,Homo sapiens [12]; [25],0.075 mg/kg-day
same,NOEL,Homo sapiens [12]; [25],0.05 mg/kg-day
same,NOAEL,Canidae [13],0.06 mg/kg-day
same,NOAEL,Canidae [13]; diet,0.06 mg/kg-day
same,NOAEL,Rattus norvegicus [14],0.2 mg/kg-day
CC(=O)CC(c1ccccc1)c1c(O)c2ccccc2oc1=O (stereo not drawn) [Warfarin],LOAEL,"Homo sapiens [12]; M/F, increased prothrombin time",0.029 mg/kg-day
same,LOAEL,Homo sapiens [15],2 mg/day
CCCCCCCC/C=C\CCCCCCCC(=O)O [Oleic acid],LD50,Cavia porcellus; dermal,> 3000 mg/kg
O=C1OC(=O)C2CC=CCC12 (stereo not drawn) [Tetrahydrophthalic anhydride],LD50,Cavia porcellus; oral,3500 mg/kg
same,LD50,Mus musculus [16],3300 mg/kg
c1ccc2cc3ccccc3cc2c1 [Anthracene],NOEL,Mus musculus [17]; no effects,1000 mg/kg-day
same,NOEL,"Mus musculus [18]; duration: 90 days, CD-10 (ICR) BR, Whole Body Effects",1000 mg/kg-day
same,NOAEL,Mus musculus [19],1000 mg/kg-day
c1cc2ccc3cccc4ccc(c1)c2c34 [Pyrene],LOAEL,Mus musculus [17]; [26],125 mg/kg-day
same,NOAEL,Mus musculus [17]; [26],75 mg/kg-day
same,NOAEL,"Mus musculus [18]; duration: 13 weeks, CD1, Urinary",75 mg/kg-day
[Cl][Hg][Cl] [Mercuric chloride],LOAEL,Coturnix japonica,0.9 mg/kg-day
same,NOAEL,Coturnix japonica,0.45 mg/kg-day
same,NOAEL,Neovison sp.,1 mg/kg-day
same,LOAEL,"Rattus norvegicus [7]; injection, subcutaneous, autoimmune effects (autoimmune glomerulonephritis)",0.226 mg/kg-day
same,LOAEL,"Rattus norvegicus [7]; oral, diet, autoimmune effects (autoimmune glomerulonephritis)",0.317 mg/kg-day and 0.633 mg/kg-day
same,LOAEL,Rattus norvegicus [20],0.015 mg/kg-day
same,LEL,Rattus norvegicus [3]; intraperitoneal,1 mg/kg-day
O=C(O)[C@@H]1[C@H](C(=O)O)[C@H]2CC[C@@H]1O2 [Endothal],LEL,Canidae [11]; [27],6 mg/kg-day
same,NOEL,Canidae [11]; [27],2 mg/kg-day
same,NOEL,Canidae [21],2 mg/kg-day
CSSC [Methyl disulfide],LOAEL,"Oryctolagus sp. [1]; short-term, duration: 28 days",106 mg/kg-day
same,NOAEL,"Oryctolagus sp. [1]; short-term, duration: 28 days",10.6 mg/kg-day
same,LC50,"Rattus norvegicus [2]; inhalation, Sprague-Dawley",3100 mg/m3
same,LD50,"Rattus norvegicus [2]; oral, gavage, Sprague-Dawley",≥ 290 mg/kg and ≤ 500 mg/kg
same,LD50,"Rattus norvegicus [2]; oral, gavage, Wistar",190 mg/kg
same,NOAEL,"Rattus norvegicus [2]; developmental, duration: 10 days, inhalation, Crl:CD(SD) BR",57.8 mg/m3
same,NOAEL,"Rattus norvegicus [2]; reproduction developmental, duration: 10 days, inhalation, F, Crl:CD(SD) BR",< 38.5 mg/m3
same,LOAEL,Rattus norvegicus [2]; [28],193 mg/m3
same,NOAEL,Rattus norvegicus [2]; [28],38.5 mg/m3
same,LD0,Oryctolagus sp. [22],≥ 2000 mg/kg
